The nature of data set [1]: Particle size distribution by laser light scattering (Malvern). The data set is classed as physicochemical. The settings on record: zaleplon used in Example 15 capsules; method not stated.
The conditions of data set [2]: cited from earlier work.

Each structure is given as a SMILES string. Bounds are passed on as bounds.

Turning to `CCN(C(C)=O)c1cccc(-c2ccnc3c(C#N)cnn23)c1` [Zaleplon, N-[3-(3-cyanopyrazolo[1,5-α]pyrimidin-7-yl)phenyl]-N-ethylacetamide], in data set [1], the D90 was found to be 195 μm.

`Cc1ccc(-c2nc3ccc(C)cn3c2CC(=O)N(C)C)cc1` [Zolpidem, N,N, 6-trimethyl-2-p-tolyl-imidazo[1,2-a]pyridine-3-acetamide]: the elimination half-life in data set [2] (in vivo) was 2 to 3 h. In addition, in data set [2] (usually), the onset of action was ≤ 15 min.

The values above are taken from US20070098788A1, “NON-BENZ[…] COMPOSITIONS” (priority 2005, published 2007).
